From publication PMC9763021, “Comprehensive Assessment of Biomolecular Interactions of Morpholine-Based Mixed Ligand Cu(II) and Zn(II) Complexes of 2,2′-Bipyridine as Potential Anticancer and SARS-CoV-2 Agents: A Synergistic Experimental and Structure-Based Virtual Screening” (Bioinorganic Chemistry and Applications, 2022)

System: CT-DNA
Assay: DNA binding by cyclic voltammetry
Design: species or system calf thymus
Conditions: for K[red]/K[oxi], (calcd): Nernst equation; for K[red]/K[oxi], found (I): from method I; for S (bp), binding site size: method II; for Kb method I, (oxi): oxidation; for Kb method I, red: reduction; for Es° = (Eb° − Ef°): shift of formal potential on DNA binding
Experimental: The CV titration for free substances was conducted at 10 μM at 25°C in the presence of Tris-HCl buffer solution (pH: 7.4). While CT-DNA increases (0–10 μM) in each sample solution, a shift in potential, including variations in the peak currents of anodic and cathodic sides, has been monitored.
The CV technique is one of the most important tools for investigating the DNA-complex adduct's binding mechanism. The CV properties of all test samples in the presence and absence of DNA were executed at a scan rate (v) 0.1 Vs^−1 with a potential range of +2 to −2 in a Tris-HCl (5 mM)/NaCl (50 mM) (pH = 7.2) solution. The M^1+/M^2+ redox couple is caused by complexes that reveal a single anodic and cathodic peak. […] (Figure S29 and Table 6).
ΔEP is peak-to-peak separation = (EPa − EPc); E°(or) E1/2 is denoted as formal electrode potential = 1/2 (EPa + EPc); Es°=(Eb° − Ef°)Eb° and Ef° are represented as the formal electrode potential of the M^1+/M^2+ couple in the bound and free forms, respectively. Es° = +19 mV (HL), +34 mV (1a), and +31 mV (2a). Ipa is anodic peak current, Ipc is cathodic peak current. K^1+ is binding constant of reduction process, K^2+ is binding constant of oxidation process, S is represented as binding site size of base pairs (bp) with a molecule of complex, Scan rate is 100 mV·s^−1, binding constant (Kb) values observed from the linear plots of log (1/[DNA]) vs. log (I/I0 − I) for oxidation and reduction, (I0 − IDNA)/IDNA = Cp/Cf versus [DNA] and Ip ^2 versus (Ipo ^2 −Ip ^2 )/[DNA] by methods I, II, and III, respectively.(24) DiffusioncoefficientD0=7.51×10^−5 SlopelogI0 −I/I=log DNA+logKb, where I0 and I are represented as the peak currents of the compound in the absence and presence of DNA.(25) log DNA=logI0 −I/I+log1/Kb log1/DNA=logI/I0−I+logKb, (26) I0 −I/I=KbDNA, (27) I0 −I/I=Cb/Cf, where Cf and Cb are denoted as the free substance concentration and DNA-interacted compound, respectively. (29) was obtained by comparing equations (27) and (28).(28) Cb/Cf=KbDNA, (29) Cb/Cf=Kbfreebasrpairs/S , (30) Cb/Cf=KbDNA/2 S +1.
S is denoted as binding site size (bp), and Kb are estimated from (31) with the help of S = (intercept/4)^1/2 and (Kb = 2S (slope/intercept), respectively. Nernst equations are as follows:(31) Es°=Eb°−Ef°=0.0591 /n logKred/Koxi, (32) Kred/Koxi=Ant. log nEb°−Ef°/0.0591.
E 1/2 or Eb° and Ef° are the formal electrode potentials of the M^1+/M^2+ couple in their bound and free forms, respectively.(33) Ip 2 =1/KbDNAIp0 2 −Ip 2 +Ip0 2 −DNA, where Ipo and Ip are denoted as the peak currents of the complexes (1–3) in the absence and presence of DNA.(34) Ipa=2.69×10^5 n^3/2 α^1/2 AC0 ∗D0 1/2 v^1/2 , (35) Ipa=13314.7D0 1/2 v^1/2 , where Ipa is denoted as the anodic peak current in amperes, n is represented as the number of electrons participating in the redox (M^1+/M^2+) process (n = 1), charge transfer coefficient (or) activation coefficient (α)≈0.5 for quasireversible systems, which also calculated from Bard–Faulkner relation(35a) α=47.7/EPa−EP/2.
C0^∗ ⟶ Bulk concentration of the compound, A is denoted as the cross-sectional area of the working electrode (glassy carbon) in cm^2 (A∼0.07 cm^2), D0 is denoted as diffusion coefficient (cm^2 s^−1) of the M^1+/M^2+ couple in the free and bound forms, respectively, and v is denoted as the potential scan rate at 0.1 Volt·s^−1. While the substances often bind to deoxyribonucleic acid through intercalation, the peak potential shifts in a positive direction. When the compounds bind to deoxyribonucleic acid via minor or major grooves or electrostatic attractions, the peak potential shifts occur in a negative direction. […]

SMILES	Kb method II [M⁻¹]	Kb method III [M⁻¹]	K[red]/K[oxi], (calcd)	K[red]/K[oxi], found (I)	S (bp), binding site size [bp]	Kb method I, (oxi) [M⁻¹]	Kb method I, red [M⁻¹]	Es° = (Eb° − Ef°)
[Cu+2].[O-]c1ccccc1N=Cc1ccc(N2CCOCC2)cc1.[O-]c1ccccc1N=Cc1ccc(N2CCOCC2)cc1.c1ccc(-c2ccccn2)nc1 [(1a), [Cu(L)2(bpy)]]	70773	21567	3.76	0.8628	0.123	25330	21854	+34 mV
[O-]c1ccccc1N=Cc1ccc(N2CCOCC2)cc1.[O-]c1ccccc1N=Cc1ccc(N2CCOCC2)cc1.[Zn+2].c1ccc(-c2ccccn2)nc1 [(2a), [Zn(L)2(bpy)]]	27693	18486	3.34	0.8268	0.270	24610	20348	+31 mV
Oc1ccccc1N=Cc1ccc(N2CCOCC2)cc1 [(HL), 2-(4-morpholinobenzylideneamino)phenol]	2443	4837	2.0964	0.7214	0.452	5280	3809	+19 mV
